Data taken from patent US8362011B2, “Tricyclic triazolic compounds” (Laboratories del Dr. Esteve, S.A., priority 2007, dated 2013).
Values joined by “and” are separate entries in the source; they are usually repeats but may differ in a detail not shown here. Equal values may be shown once.

Assays:
σ1-receptor = target: T1, σ1-receptor (Cavia porcellus, UniProt Q60492); experiment: σ1-receptor binding assay, [3H]-(+)-pentazocine, guinea pig brain membranes; conditions: [3H]-(+)-pentazocine 5.0 nM; for % Displacement (10^−6 M): 10^−6 M compound
T1 construct: Guinea pig brains were homogenized in 10 vols; (w/v) of Tris-HCl 50 mM 0.32 M sucrose; from tissue; host or cells: guinea pig brain membranes
Method: Brain membrane preparation and binding assays for the σ1-receptor were performed as described (DeHaven-Hudkins, D. L., L.C. Fleissner, and F. Y. Ford-Rice, 1992, Characterization of the binding of [^3H](+)pentazocine to σ recognition sites in guinea pig brain, Eur. J. Pharmacol. 227, 371-378) with some modifications. Guinea pig brains were homogenized in 10 vols. (w/v) of Tris-HCl 50 mM 0.32 M sucrose, pH 7.4, with a Kinematica Polytron PT 3000 at 15000 r.p.m. for 30 s. The homogenate was centrifuged at 1000 g for 10 min at 4° C. and the supernatants collected and centrifuged again at 48000 g for 15 min at 4° C. The pellet was resuspended in 10 volumes of Tris-HCl buffer (50 mM, pH 7.4), incubated at 37° C. for 30 min, and centrifuged at 48000 g for 20 min at 4° C. Following this, the pellet was re-suspended in fresh Tris-HCl buffer (50 mM, pH 7.4) and stored on ice until use.
The radioligand used was [^3H]-(+)-pentazocine at 5.0 nM and the final volume was 200 μl. The incubation was initiated with the addition of 100 μA of membrane at a final tissue concentration of approximately 5 mg tissue net weight/mL and the incubation time was 150 m. at 37° C. After incubation, the membranes were collected onto pretreated glass fiber filterplate (MultiScreen-FC, Millipore), with polyethylenimine 0.1%. The filters were washed two times with 200 μA of washing buffer (50 mM Tris Cl, pH=7.4) and then 25 μA of Ecoscint H liquid scintillation cocktail were added. Microplates were allowed to set for several hours and then quantified by liquid scintillation spectrophotometry (1450 Microbeta, Wallac). Nonspecific binding was determined with 1 μM haloperidol.

T1 sequence (Q60492 whole entry): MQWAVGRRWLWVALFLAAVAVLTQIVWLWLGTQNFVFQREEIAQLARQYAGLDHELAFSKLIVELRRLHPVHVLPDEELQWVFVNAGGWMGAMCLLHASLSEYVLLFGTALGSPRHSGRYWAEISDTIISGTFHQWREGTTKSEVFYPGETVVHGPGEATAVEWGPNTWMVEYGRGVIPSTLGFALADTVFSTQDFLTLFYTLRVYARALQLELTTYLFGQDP

SMILES	Ki (σ1-receptor)	melting point [°C]	% Displacement (10^−6 M) (σ1-receptor) [%]
CCc1nnn2c1CO[C@@H]1CN(Cc3ccc(OC)cc3)C[C@H]12 (relative stereo) [Example 3, (5a,8a-trans)-3-ethyl-7-(4-methoxybenzyl)-4,5a,6,7,8,8a-hexahydro pyrrolo[3,4-b][1,2,3]triazolo[1,5-d][1,4]oxazine]	298 ± 76.2 nM		
c1ccc(CN2C[C@@H]3[C@@H](C2)OCc2cnnn23)cc1 (relative stereo) [Example 4, (5a,8a-trans)-7-benzyl-4,5a,6,7,8,8a-hexahydropyrrolo[3,4-b][1,2,3] triazolo[1,5-d][1,4]oxazine]		101 to 102	<50
Cc1nnn2c1CO[C@@H]1CN(Cc3ccccc3)C[C@H]12 (relative stereo) [Example 5, (5a,8a-trans)-7-benzyl-3-methyl-4,5a,6,7,8,8a-hexahydropyrrolo[3,4-b][1,2,3]triazolo[1,5-d][1,4]oxazine]	> 1000 nM	103 to 104	
FC(F)(F)c1ccc(-c2nnn3c2CO[C@@H]2CN(Cc4ccccc4)C[C@H]23)cc1 (relative stereo) [Example 6, (5a,8a-trans)-7-benzyl-3-(4-(trifluoromethyl)phenyl)-4,5a,6,7,8,8a-hexa hydropyrrolo[3,4-b][1,2,3]triazolo[1,5-d][1,4]oxazine]	31.3 ± 8.7 nM	137 to 138	
CCc1nnn2c1CO[C@@H]1CN(Cc3ccccc3)C[C@H]12 (relative stereo) [Example 8, (5a,8a-trans)-7-benzyl-3-ethyl-4,5a,6,7,8,8a-hexahydropyrrolo[3,4-b][1,2,3]triazolo[1,5-d][1,4]oxazine]	375 ± 1.6 nM	106 to 107	
Clc1ccc(-c2nnn3c2CO[C@@H]2CN(Cc4ccccc4)C[C@H]23)cc1 (relative stereo) [Example 9, (5a,8a-trans)-7-benzyl-3-(4-chlorophenyl)-4,5a,6,7,8,8a-hexahydro pyrrolo[3,4-b][1,2,3]triazolo[1,5-d][1,4]oxazine]		197 to 198	87
c1ccc(CN2C[C@@H]3[C@@H](C2)OCc2c(-c4ccccc4)nnn23)cc1 (relative stereo) [Example 11, (5a,8a-trans)-7-benzyl-3-phenyl-4,5a,6,7,8,8a-hexahydropyrrolo[3,4-b][1,2,3]triazolo[1,5-d][1,4]oxazine]	26.9 ± 4.4 nM	154 to 155	
c1ccc(-c2nnn3c2CO[C@@H]2CNC[C@H]23)cc1 (relative stereo) [Example 13, (5a,8a-trans)-3-phenyl-4,5a,6,7,8,8a-hexahydropyrrolo[3,4-b][1,2,3] triazolo[1,5-d][1,4]oxazine]	283 nM and 262 nM	165 to 167	
O=C(CCc1ccccc1)N1C[C@@H]2[C@@H](C1)OCc1c(-c3ccccc3)nnn12 (relative stereo) [Example 28, 3-phenyl-1-((5a,8a-trans)-3-phenyl-5a,6,8,8a-tetrahydropyrrolo[3,4-b][1,2,3]triazolo[1,5-d][1,4]oxazin-7(4H)-yl)propan-1-one]	563 nM	205 to 206	
CCCC(=O)N1C[C@@H]2[C@@H](C1)OCc1c(-c3ccccc3)nnn12 (relative stereo) [Example 29, 1-((5a,8a-trans)-3-phenyl-5a,6,8,8a-tetrahydropyrrolo[3,4-b][1,2,3]triazolo[1,5-d][1,4]oxazin-7(4H)-yl)butan-1-one]	334 nM and 341 nM	202 to 204	
CCCCCN1C[C@@H]2[C@@H](C1)OCc1c(-c3ccccc3)nnn12 (relative stereo) [Example 41, (5a,8a-trans)-7-pentyl-3-phenyl-4,5a,6,7,8,8a-hexahydropyrrolo[3,4-b][1,2,3]triazolo[1,5-d][1,4]oxazine]	5.47 nM and 6.79 nM		
